Test results: patent publication US20230272012A1, “PEPTIDES AND METHODS OF USE” (REALTA LIFE SCIENCES, INC., priority 2020, published 2023)
Bridge positions count the residues as written; N and C are the ends. Square brackets hold non-standard residues; d marks the D form. Ends that are not written are not given here. Peptide text beside a SMILES is read from it. R8 = C=CCCCCCC[C@@](C)(N)C(=O)O; S5 = C=CCCC[C@](C)(N)C(=O)O; Sar = CNCC(=O)O

What was measured:
[1] = Total Antioxidant Capacity (TAC) assay; details: highest peptide concentration 1.5 mM
Method: As previously reported, the TAC (Total Antioxidant Capacity) Assay (Cell Biolabs, Inc, San Diego, Calif.) was used to measure the antioxidant capacity of the PIC1 variants based on the reduction of copper (II) to copper (I). The kit protocol was performed per the manufacturer's recommendations.
The antioxidant properties for the PIC1 variants were evaluated in a Total Antioxidant Capacity (TAC) assay, as previously reported. Total antioxidant activity over a range of peptide concentrations were determined for the stapled and the D-amino acid peptides based on the PA-I8Sar and PA-C9Sar backbones (FIG. 8A-8D), with the activity of the highest peptide concentration reported (1.5 mM) (FIGS. 4A and B, respectively). […] For the D-amino acid variants, there was variation in the amount of antioxidant activity with the peptides having similar, slightly lower and slightly higher levels of total antioxidant capacity. In contrast, stapled peptides (PA-0135 through -0140) as well as combination of stapled and D-amino acid peptides had reduced total antioxidant capacity (FIG. 4A).

[2] = ABO incompatibility hemolytic assay of complement activity (CH50-type); format: cell-based, human; details: human; peptide 0.8 mg/ml (~0.5 mM); read-out: decrease of ABO hemolysis compared to PA-I8Sar
Summary of the method: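 Type AB human erythrocytes (5.0×10^7) incubated with 15% (final) type O human serum and 0.5 mM peptide in GVBS^++, 1 h at 37 °C. Hemolysis read as supernatant absorbance at 412 nm, expressed as percent of the serum-plus-RBC positive control; means of three independent experiments ±SEM.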

PD-1 = PD-1 (Homo sapiens, UniProt Q15116); assay: Peptide binding to immobilized PD-1, ELISA plate-based assay; details: increasing amounts of peptide
Method: (§1) RLS-0117 was allowed to bind to immobilized CTLA-4, PD-1, PD-L1 on the surface of the plate. Bound C1q served as a positive and control for peptide binding. Increasing amounts of peptides were added to the plates followed by a rabbit polyclonal antibody that recognizes the peptides and then a secondary anti-rabbit antibody conjugated with HRP. The plate was then developed by addition of TMB as the substrate for the colorimetric assay.
(§2) The inventors further evaluated if RLS-0117 could bind to the well characterized checkpoint inhibitor, cytotoxic T-lymphocyte associated protein 4 (CTLA-4 aka CD152). […] Therefore, the pharmaceutical inhibition of CTLA-4 or its ligand has been considered a promising strategy by many cancer researchers and is a therapeutic target in cancer immunotherapy. To ascertain the ability of RLS-0117 to bind CTLA-4, a binding assay was performed in which these proteins were coated on a microtiter plate followed by incubation with increasing amounts of either […]. Plates coated with PD-1, PD-L1 and C1q served as a positive control […].

PD-L1 = PD-L1 (Homo sapiens, UniProt Q9NZQ7); assay: Peptide binding to immobilized PD-L1, ELISA plate-based assay; details: increasing amounts of peptide
Method: as §1, §2

CTLA-4 = biological target: T1, CTLA-4 (Homo sapiens, UniProt P16410); assay: Peptide binding to immobilized CTLA-4, ELISA plate-based assay; details: increasing amounts of peptide
T1 sequence (P16410 36-223): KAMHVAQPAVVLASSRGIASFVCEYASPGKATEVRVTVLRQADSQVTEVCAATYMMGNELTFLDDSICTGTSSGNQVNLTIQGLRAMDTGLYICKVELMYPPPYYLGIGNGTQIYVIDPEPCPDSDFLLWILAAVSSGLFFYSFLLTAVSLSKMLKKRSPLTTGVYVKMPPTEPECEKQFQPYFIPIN
Method: as §1, §2

[3] = format: in vivo, rat; details: IV in Wistar rats, 20, 200, 400 mg/kg; 0.5-1440 minute
Method: (§3) Male Wistar rats with indwelling jugular catheters were administered PA-0117, -0127, -0130, and -0133 with groups of three animals receiving 20, 200 and 400 mg/kg of the compound as a single, bolus, IV infusion. A control group of rats received an infusion of saline IV. At various time points after infusion (0.5, 2, 5, 20, 60, 120, 240, 480, 1440 minute) an aliquot of blood was drawn and plasma isolated and frozen at −70° C. pending analysis. Animals were sacrificed after the terminal blood draw and a gross necropsy performed.
(§4) PA-0117 could not be analyzed as no functional complement activity was obtained from the plasma samples. […] PA-0117 was analyzed in a C1q target acquisition assay (C1q binding assay) as described in Example 1 (FIG. 9). […] PA-0127 and -0130 levels were determined by coating the plate with the plasma samples and directly detecting the peptides by rabbit antibody raised against PA-0020 (peptide sequence […]; SEQ ID NO: 57) (FIGS. 10B and 11B). […] PA-0133 could not be detected by the available antibodies.
PA-0117: The hemolysis assay results were not useable (few pre-bleeds had any activity, and only a few other random samples had any complement activity). The PK assay for PA-0117 was performed by sandwich ELISA (FIG. 9). PA-0127: The results of the hemolysis assay are discussed herein (see also FIG. 10A). […] PA-0130: The results of the hemolysis assay are discussed herein (see also FIG. 11A). […] PA-0133: The results of the hemolysis assay are discussed herein (FIG. 12).

complement activity = assay: Hemolytic assay of plasma after IV infusion into rats; format: in vivo, rat; details: IV in Wistar rats; early time points at the highest dose
Method: as §3, §4

Sequence of PD-1 (Q15116 25-288): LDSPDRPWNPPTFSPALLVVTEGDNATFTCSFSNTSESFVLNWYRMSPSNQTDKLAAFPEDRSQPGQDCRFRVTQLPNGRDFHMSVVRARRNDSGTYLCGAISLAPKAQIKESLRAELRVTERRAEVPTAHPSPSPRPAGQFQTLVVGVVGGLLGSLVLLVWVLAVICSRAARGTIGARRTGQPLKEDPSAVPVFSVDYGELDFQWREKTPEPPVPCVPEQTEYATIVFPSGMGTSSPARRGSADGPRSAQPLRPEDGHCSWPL
Sequence of PD-L1 (Q9NZQ7 19-290): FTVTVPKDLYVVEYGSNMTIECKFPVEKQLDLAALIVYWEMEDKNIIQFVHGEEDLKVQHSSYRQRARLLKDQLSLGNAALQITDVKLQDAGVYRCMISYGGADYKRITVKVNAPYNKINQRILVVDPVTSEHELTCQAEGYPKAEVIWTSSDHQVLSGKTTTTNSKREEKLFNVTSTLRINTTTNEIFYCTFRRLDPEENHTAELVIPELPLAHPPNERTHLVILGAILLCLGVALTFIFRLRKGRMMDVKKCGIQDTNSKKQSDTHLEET

CC[C@H](C)[C@H](N)C(=O)N[C@]1(C)CCCCCCC=CCCC[C@@](C)(C(=O)N[C@@H](CS)C(=O)N[C@@H](CCC(N)=O)C(=O)N[C@@H](CCC(=O)O)C(=O)N[C@@H](CCCNC(=N)N)C(=O)N[C@@H](C)C(=O)N[C@@H](C)C(=O)O)NC(=O)CN(C)C(=O)[C@@H]2CCCN2C(=O)[C@H](CCC(=O)O)NC(=O)[C@H](CC(C)C)NC(=O)[C@H]([C@@H](C)CC)NC(=O)[C@H](CC(C)C)NC1=O [PA-0115, IR8LILEP(Sar)S5CQERAA] (H-I[R8]LILEP[Sar][S5]CQERAA-OH; staple 2-9)
total antioxidant capacity compared with PA-I8Sar [1]: much less antioxidant activity
total antioxidant capacity compared with PA-I8Sar ([1]; listed as PA-0015): reduction in total antioxidant capacity
decrease in ABO hemolysis compared to reference peptide at 1 h [2]: 30%

CC[C@H](C)[C@H](N)C(=O)N[C@@H](C)C(=O)N[C@@H](CC(C)C)C(=O)N[C@H](C(=O)N[C@@H](CC(C)C)C(=O)N[C@@H](CCC(=O)O)C(=O)N1CCC[C@H]1C(=O)N(C)CC(=O)N[C@@H](CS)C(=O)N[C@@]1(C)CCCC=CCCC[C@@](C)(C(=O)N[C@@H](C)C(=O)O)NC(=O)[C@H](CCCNC(=N)N)NC(=O)[C@H](CCC(=O)O)NC(=O)[C@H](CCC(N)=O)NC1=O)[C@@H](C)CC [PA-0117, IALILEP(Sar)CS5QERS5A] (H-IALILEP[Sar]C[S5]QER[S5]A-OH; staple 10-14)
binding to PD-1 (PD-1): dose-dependent binding
binding to PD-L1 (PD-L1): dose-dependent binding
binding to CTLA-4 (CTLA-4): bound CTLA-4
peptide level in plasma over time [3]: detected at early time points at each dose and decreased over time
decrease in ABO hemolysis compared to reference peptide at 1 h [2]: 25%

IALILEP(Sar)CCQERA (IALILEP[Sar]CCQERA; cysteine pairing not given here) [RLS-0133*]
inhibition of complement activity in the hemolytic assay of rat plasma (complement activity): inhibit complement activation

IALILEP(Sar)dCCQERRA (IALILEP[Sar][dC]CQERRA; cysteine pairing not given here) [RLS-0127*]
inhibition of complement activity in the hemolytic assay of rat plasma (complement activity): inhibit complement activation
